Compound in test [1]: O=[As]([O-])(O)O.[K+] [potassium arsenate]
Kind of test: thermal stability z-score vs DMSO; higher = more thermally stabilized by treatment. Conditions: HeLa; arsenate concentration 1 mM. How it is done:
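Cellular thermal proteome profiling in HeLa cells treated with 1 mM arsenate for 1 h (DMSO pretreatment), heated to ten temperatures (37-66.3 °C). Soluble protein was quantified by TMT mass spectrometry relative to DMSO controls; the thermal stability score was transformed to a z-score; mean of n = 3 experiments.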

Compound in test [2]: NC(=O)CCCCC1CCSS1 [lipoamide]
Described as above. Conditions: HeLa, lipoamide concentration 100 µM. How it is done: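 Cellular thermal proteome profiling in HeLa cells. Cells were treated with 100 µM lipoamide for 1 h, with or without 1 mM arsenate for a further 1 h, then heated to ten temperatures (37-66.3 °C), and soluble protein was quantified by TMT mass spectrometry relative to 0.1% DMSO controls. The thermal stability score (sum of log2 fold changes minus the abundance score) was transformed to a z-score; mean of n = 3 experiments.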

Where [3] appears, read: arsenate co-treatment: 1 mM arsenate 1 h.
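Further: each temperature applied for 3 min, abundance score taken as mean log2 fold change at the two lowest temperatures, z-score obtained by mean subtraction and division by SD.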

Sequence of UniProt O94986 (O94986 whole entry): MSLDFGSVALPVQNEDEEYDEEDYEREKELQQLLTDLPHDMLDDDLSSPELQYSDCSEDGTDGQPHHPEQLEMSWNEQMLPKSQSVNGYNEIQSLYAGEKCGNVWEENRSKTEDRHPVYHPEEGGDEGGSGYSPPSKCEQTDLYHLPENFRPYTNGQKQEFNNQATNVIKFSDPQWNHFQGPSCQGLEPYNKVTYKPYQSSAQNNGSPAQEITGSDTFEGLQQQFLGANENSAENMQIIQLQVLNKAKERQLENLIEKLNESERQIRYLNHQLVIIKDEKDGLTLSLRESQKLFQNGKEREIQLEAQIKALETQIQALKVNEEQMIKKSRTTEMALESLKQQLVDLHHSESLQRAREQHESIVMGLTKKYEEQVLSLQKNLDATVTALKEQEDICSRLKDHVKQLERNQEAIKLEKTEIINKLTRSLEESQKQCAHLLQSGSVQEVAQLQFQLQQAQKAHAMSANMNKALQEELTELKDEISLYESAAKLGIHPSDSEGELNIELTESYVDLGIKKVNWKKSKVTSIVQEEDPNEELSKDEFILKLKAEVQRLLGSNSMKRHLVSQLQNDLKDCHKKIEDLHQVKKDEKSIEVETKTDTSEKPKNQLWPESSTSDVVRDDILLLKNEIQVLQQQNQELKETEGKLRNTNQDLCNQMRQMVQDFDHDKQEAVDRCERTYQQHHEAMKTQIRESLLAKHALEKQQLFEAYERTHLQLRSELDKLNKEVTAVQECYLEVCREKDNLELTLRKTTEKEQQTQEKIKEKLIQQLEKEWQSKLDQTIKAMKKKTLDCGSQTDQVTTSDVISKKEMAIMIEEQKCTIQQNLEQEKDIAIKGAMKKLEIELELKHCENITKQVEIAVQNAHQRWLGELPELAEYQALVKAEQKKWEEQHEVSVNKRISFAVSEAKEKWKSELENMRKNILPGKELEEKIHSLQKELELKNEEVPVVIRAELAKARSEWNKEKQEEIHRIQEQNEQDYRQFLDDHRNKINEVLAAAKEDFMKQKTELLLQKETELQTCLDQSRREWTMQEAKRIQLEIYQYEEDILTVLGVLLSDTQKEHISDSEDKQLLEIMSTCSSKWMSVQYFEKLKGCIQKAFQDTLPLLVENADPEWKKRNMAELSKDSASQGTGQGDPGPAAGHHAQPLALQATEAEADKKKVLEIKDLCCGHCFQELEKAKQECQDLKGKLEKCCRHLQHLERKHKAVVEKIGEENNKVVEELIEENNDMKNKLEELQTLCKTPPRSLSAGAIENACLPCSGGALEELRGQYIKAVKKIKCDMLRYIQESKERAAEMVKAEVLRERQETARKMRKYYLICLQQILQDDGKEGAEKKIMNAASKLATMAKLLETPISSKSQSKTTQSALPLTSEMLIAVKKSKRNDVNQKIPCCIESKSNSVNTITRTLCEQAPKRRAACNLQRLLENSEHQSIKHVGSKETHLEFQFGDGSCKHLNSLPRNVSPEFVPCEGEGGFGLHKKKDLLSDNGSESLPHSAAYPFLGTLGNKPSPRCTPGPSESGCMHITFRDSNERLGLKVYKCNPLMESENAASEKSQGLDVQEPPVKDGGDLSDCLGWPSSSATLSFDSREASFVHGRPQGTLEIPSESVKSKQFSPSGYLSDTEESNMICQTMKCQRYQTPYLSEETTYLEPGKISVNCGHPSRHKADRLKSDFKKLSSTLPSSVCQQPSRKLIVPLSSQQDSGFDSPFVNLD
Sequence of UniProt Q9BYV8 (Q9BYV8 whole entry): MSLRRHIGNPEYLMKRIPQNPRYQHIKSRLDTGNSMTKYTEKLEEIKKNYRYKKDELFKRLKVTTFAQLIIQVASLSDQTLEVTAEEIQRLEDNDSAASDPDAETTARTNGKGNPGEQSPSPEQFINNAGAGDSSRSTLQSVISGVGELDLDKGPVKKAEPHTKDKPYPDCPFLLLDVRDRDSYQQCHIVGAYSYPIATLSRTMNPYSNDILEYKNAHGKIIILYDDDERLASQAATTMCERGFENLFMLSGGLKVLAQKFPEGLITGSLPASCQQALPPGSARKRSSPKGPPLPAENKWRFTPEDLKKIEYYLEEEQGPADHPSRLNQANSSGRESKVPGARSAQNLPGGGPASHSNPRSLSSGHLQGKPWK
Sequence of UniProt O15078 (O15078 whole entry): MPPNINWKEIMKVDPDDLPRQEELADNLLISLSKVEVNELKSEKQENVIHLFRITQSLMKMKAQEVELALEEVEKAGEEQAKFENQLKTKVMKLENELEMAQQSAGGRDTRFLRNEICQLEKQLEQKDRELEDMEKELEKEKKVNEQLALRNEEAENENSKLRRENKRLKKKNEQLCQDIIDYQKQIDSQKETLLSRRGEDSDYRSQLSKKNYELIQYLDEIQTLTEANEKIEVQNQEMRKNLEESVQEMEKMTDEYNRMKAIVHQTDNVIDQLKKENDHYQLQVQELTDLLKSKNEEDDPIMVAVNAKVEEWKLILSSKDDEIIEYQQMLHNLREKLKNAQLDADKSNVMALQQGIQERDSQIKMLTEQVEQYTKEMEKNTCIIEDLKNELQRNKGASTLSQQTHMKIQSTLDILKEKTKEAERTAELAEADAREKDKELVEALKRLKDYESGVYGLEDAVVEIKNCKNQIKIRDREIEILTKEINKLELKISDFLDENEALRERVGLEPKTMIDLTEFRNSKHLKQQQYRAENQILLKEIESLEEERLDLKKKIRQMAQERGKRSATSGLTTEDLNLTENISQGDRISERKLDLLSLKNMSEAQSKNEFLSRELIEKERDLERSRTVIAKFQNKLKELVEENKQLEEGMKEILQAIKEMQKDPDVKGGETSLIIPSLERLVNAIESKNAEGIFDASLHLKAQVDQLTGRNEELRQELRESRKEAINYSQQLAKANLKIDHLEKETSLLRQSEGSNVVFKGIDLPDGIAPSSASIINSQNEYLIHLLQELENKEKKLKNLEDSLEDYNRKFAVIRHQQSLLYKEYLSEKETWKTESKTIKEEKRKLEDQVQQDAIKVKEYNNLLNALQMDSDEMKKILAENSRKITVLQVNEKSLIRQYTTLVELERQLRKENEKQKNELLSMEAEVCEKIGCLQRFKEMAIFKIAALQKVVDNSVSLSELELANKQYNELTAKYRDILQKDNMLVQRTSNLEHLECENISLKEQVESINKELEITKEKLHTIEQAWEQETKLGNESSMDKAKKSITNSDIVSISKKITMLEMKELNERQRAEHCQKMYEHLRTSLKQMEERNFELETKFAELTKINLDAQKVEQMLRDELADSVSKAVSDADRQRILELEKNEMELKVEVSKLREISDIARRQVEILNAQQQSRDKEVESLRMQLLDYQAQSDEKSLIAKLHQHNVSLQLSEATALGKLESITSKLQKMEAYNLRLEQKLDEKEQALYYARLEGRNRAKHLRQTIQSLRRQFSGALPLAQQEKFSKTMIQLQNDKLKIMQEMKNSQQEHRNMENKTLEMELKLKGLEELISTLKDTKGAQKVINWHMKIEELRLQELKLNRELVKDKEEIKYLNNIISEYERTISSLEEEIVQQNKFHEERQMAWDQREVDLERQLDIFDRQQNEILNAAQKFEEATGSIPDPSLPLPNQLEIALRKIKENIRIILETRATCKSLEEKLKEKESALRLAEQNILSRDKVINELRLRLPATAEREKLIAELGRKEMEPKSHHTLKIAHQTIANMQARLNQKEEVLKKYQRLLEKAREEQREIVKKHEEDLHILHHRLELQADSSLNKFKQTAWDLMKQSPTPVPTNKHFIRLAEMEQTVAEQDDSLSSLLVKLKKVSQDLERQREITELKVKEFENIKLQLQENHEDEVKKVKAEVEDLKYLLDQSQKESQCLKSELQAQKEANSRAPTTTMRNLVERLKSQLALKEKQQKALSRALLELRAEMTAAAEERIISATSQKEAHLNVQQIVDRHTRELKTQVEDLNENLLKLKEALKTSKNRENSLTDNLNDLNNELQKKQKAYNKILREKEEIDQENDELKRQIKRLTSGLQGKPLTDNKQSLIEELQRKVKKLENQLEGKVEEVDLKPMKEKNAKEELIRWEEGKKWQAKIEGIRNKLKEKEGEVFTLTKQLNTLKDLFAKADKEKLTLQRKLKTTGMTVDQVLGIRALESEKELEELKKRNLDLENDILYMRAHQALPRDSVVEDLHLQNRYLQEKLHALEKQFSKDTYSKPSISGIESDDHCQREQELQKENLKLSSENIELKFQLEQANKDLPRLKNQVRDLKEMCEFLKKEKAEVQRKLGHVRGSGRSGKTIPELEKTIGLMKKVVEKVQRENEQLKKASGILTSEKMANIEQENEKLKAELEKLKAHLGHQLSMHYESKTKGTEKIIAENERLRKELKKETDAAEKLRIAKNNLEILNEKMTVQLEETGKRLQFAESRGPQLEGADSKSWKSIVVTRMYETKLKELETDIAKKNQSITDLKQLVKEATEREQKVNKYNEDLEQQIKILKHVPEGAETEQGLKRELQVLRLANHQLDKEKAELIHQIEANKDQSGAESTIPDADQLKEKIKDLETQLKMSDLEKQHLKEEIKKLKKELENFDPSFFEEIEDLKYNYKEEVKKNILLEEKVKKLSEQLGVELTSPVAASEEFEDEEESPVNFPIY
Sequence of UniProt Q9C0F1 (Q9C0F1 whole entry): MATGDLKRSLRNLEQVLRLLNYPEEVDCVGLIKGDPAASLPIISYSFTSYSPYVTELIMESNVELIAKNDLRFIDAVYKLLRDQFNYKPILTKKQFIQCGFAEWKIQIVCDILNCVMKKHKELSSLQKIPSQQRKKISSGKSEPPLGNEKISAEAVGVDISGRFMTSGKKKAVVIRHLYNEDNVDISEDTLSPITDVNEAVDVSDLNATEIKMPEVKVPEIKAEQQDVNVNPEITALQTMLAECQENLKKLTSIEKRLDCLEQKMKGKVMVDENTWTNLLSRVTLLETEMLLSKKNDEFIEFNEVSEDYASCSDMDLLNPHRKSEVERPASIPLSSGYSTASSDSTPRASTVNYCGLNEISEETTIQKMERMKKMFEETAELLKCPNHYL
Sequence of UniProt A8MTT3 (A8MTT3 whole entry): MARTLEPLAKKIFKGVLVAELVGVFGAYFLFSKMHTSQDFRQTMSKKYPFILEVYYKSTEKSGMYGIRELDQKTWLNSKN

As to CDV3 (UniProt Q9UKY7), the values for the thermal stability z-score in test [1], in test [2] (setting [3]) and in test [2] (arsenate co-treatment: none) were 0.683, 0.669 and 0.83, respectively.
The corresponding values for CDYL (UniProt Q9Y232) are 0.0814, 2.68 and 1.28.
The corresponding values for CEBPB (UniProt P17676) are -0.856, -0.261 and -1.23.
With CEBPZ (UniProt Q03701), the thermal stability z-score in test [1] is -1.01; in test [2] (setting [3]), 0.161; in test [2] (arsenate co-treatment: none), -0.141.
For CEBPZOS (UniProt A8MTT3) the same measures were 0.526, 0.351 and 0.365.
For CECR5 (UniProt Q9BXW7) the same measures were 0.99, -0.169 and 0.0959.
For CELF1 (UniProt Q92879) the same measures were -0.593, -1.1 and -0.66.
Regarding CELSR2 (UniProt Q9HCU4), the values for the thermal stability z-score in test [1], in test [2] (setting [3]) and in test [2] (arsenate co-treatment: none) were -0.894, -1.53 and -2.3, respectively.
The corresponding values for CENPE (UniProt Q02224) are 0.013, 0.141 and 0.088.
For CENPF (UniProt P49454) the same measures were 1.73, 0.439 and -0.0287.
The corresponding values for CENPH (UniProt Q9H3R5) are 0.184, -0.976 and 0.153.
Regarding CENPV (UniProt Q7Z7K6), the thermal stability z-score is -0.0535 in test [1], 0.172 in test [2] (setting [3]) and 0.192 in test [2] (arsenate co-treatment: none).
CEP41 (UniProt Q9BYV8): the values for the thermal stability z-score in test [1], in test [2] (setting [3]) and in test [2] (arsenate co-treatment: none) were -0.106, -0.0855 and -0.44, respectively.
For CEP44 (UniProt Q9C0F1) the same measures were 0.0867, 0.18 and 0.0577.
Take CEP55 (UniProt Q53EZ4): the thermal stability z-score was -0.0317 in test [1], -0.129 in test [2] (setting [3]) and -0.0226 in test [2] (arsenate co-treatment: none).
Regarding CEP76 (UniProt Q8TAP6), the thermal stability z-score in test [1] is -1.36; in test [2] (setting [3]) it was -0.336; in test [2] (arsenate co-treatment: none), 0.197.
For CEP78 (UniProt Q5JTW2) the same measures were -0.165, -0.104 and -0.0338.
For CEP83 (UniProt Q9Y592) the same measures were -0.498, 0.829 and 1.19.
For CEP85 (UniProt Q6P2H3) the same measures were -0.118, -0.00805 and 0.112.
Regarding CEP97 (UniProt Q8IW35), the thermal stability z-score was -0.411 in test [1], -0.477 in test [2] (setting [3]) and 0.495 in test [2] (arsenate co-treatment: none).
On to CEP131 (UniProt Q9UPN4), for which the thermal stability z-score in test [1] was 0.215; in test [2] (setting [3]), -0.287; in test [2] (arsenate co-treatment: none), -0.195.
Regarding CEP152 (UniProt O94986), the thermal stability z-score in test [1] was 0.269; in test [2] (setting [3]) it was -0.185; in test [2] (arsenate co-treatment: none), -0.184.
For CEP170 (UniProt Q5SW79) the same measures were 1.21, -0.0596 and -0.496.
Regarding CEP170B (UniProt Q9Y4F5), the thermal stability z-score in test [1] was -0.201; in test [2] (setting [3]), -0.0863; in test [2] (arsenate co-treatment: none), -0.0862.
Turning to CEP192 (UniProt Q8TEP8), the thermal stability z-score is 0.0297 in test [1], -0.251 in test [2] (setting [3]) and -0.467 in test [2] (arsenate co-treatment: none).
For CEP250 (UniProt Q9BV73) the same measures were 0.0828, 0.0869 and 0.182.
The corresponding values for CEP290 (UniProt O15078) are 0.0798, 0.613 and 0.238.

These data come from the supplement of paper PMC12463676, “Small-molecule dissolution of stress granules by redox modulation benefits ALS models” (Nature Chemical Biology, 2025).
